From PubChem BioAssay AID330 (DTP/NCI, 2004)
“And” between values parts separate entries of the source, which are not always exact repeats. Equal entries are not always repeated. Inconclusive results and toxic doses are left out.

System: P388 leukemia ip, CD2F1 mice, survival T/C
Test: NCI In Vivo Anticancer Drug Screen. Data for tumor model P388 Leukemia (intraperitoneal) in CD2F1 (CDF1) mice
Conditions: endpoint: median survival time, higher = longer survival
Summary of the method: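 Mice carrying the transplanted tumor received test compound or vehicle. Survival was recorded in each group, and the value is the treated-group measurement divided by that of the vehicle-treated control group.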

[1] = dose: 25.0 mg/kg/injection, schedule: Q01DX005 (ip), vehicle: Klucel (hydroxypropylcellulose) (HPC)
[2] = dose: 50.0 mg/kg/injection, schedule: Q01DX005 (ip), vehicle: Klucel (hydroxypropylcellulose) (HPC)
[3] = dose: 60.0 mg/kg/injection, schedule: Q01DX005 (ip), vehicle: saline with Tween-80
[4] = dose: 120.0 mg/kg/injection, schedule: Q01DX005 (ip), vehicle: saline with Tween-80
[5] = dose: 240.0 mg/kg/injection, schedule: Q01DX005 (ip), vehicle: saline with Tween-80
[6] = dose: 50.0 mg/kg/injection, schedule: Q01DX009 (ip), vehicle: saline
[7] = dose: 100.0 mg/kg/injection, schedule: Q01DX009 (ip), vehicle: saline
[8] = dose: 200.0 mg/kg/injection, schedule: Q01DX009 (ip), vehicle: saline
[9] = dose: 50.0 mg/kg/injection, schedule: Q01DX005 (ip), vehicle: saline with Tween-80
[10] = dose: 50.0 mg/kg/injection, schedule: Q01DX009 (ip), vehicle: Klucel (hydroxypropylcellulose) (HPC)
[11] = dose: 100.0 mg/kg/injection, schedule: Q01DX009 (ip), vehicle: Klucel (hydroxypropylcellulose) (HPC)
[12] = dose: 200.0 mg/kg/injection, schedule: Q01DX009 (ip), vehicle: Klucel (hydroxypropylcellulose) (HPC)
[13] = dose: 12.5 mg/kg/injection, schedule: Q01DX005 (ip), vehicle: saline with Tween-80
[14] = dose: 25.0 mg/kg/injection, schedule: Q01DX005 (ip), vehicle: saline with Tween-80

SMILES: O=S(=O)(O)c1c(O)c2ccccc2c2nc3ccccc3nc12
- T/C (dose: 50.0 mg/kg/injection, schedule: Q01DX007 (ip), vehicle: saline): 105 % of control
- T/C (dose: 100.0 mg/kg/injection, schedule: Q01DX007 (ip), vehicle: saline): 87 % of control

SMILES: COC(=O)C1C2c3ccccc3C(C1C(=O)OC)[n+]1ccccc12 (stereo not given)
- T/C [1]: 94 % of control
- T/C [2]: 94 % of control
- T/C (dose: 100.0 mg/kg/injection, schedule: Q01DX005 (ip), vehicle: Klucel (hydroxypropylcellulose) (HPC)): 100 % of control

SMILES: COC(=O)CCCCC1=CCC2C(=O)C=C(O)C2C1 (stereo not given)
- T/C [3]: 87 % of control
- T/C [4]: 106 % of control
- T/C [5]: 116 % of control

SMILES: CCCCCCCCNC(=O)C1C(=O)N(CCCCCCCC)C(=O)/C1=N/N (stereo not given)
- T/C (dose: 100.0 mg/kg/injection, schedule: Q04DX002 (ip), vehicle: saline with Tween-80): 100 % of control
- T/C (dose: 200.0 mg/kg/injection, schedule: Q04DX002 (ip), vehicle: saline with Tween-80): 92 % of control

SMILES: CCC1=NC(C)(C)CO1
- T/C [6]: 104 % of control
- T/C [7]: 97 % of control
- T/C [8]: 97 % of control

SMILES: CC[CH](C)[Sn](=[O])[c]1ccccc1 (stereo not given)
- T/C (dose: 0.39 mg/kg/injection, schedule: Q01DX009 (ip), vehicle: saline): 101 % of control
- T/C (dose: 0.79 mg/kg/injection, schedule: Q01DX009 (ip), vehicle: saline): 117 % of control
- T/C (dose: 3.12 mg/kg/injection, schedule: Q01DX009 (ip), vehicle: saline with Tween-80): 153 % of control

SMILES: O=C1CC2(C(=O)O1)C1C(=O)OC(=O)C1C1c3ccccc3C=NN12 (stereo not given)
- T/C (dose: 50.0 mg/kg/injection, schedule: Q01DX009 (ip), vehicle: saline with Tween-80): 98 % of control
- T/C (dose: 100.0 mg/kg/injection, schedule: Q01DX009 (ip), vehicle: saline with Tween-80): 93 % of control
- T/C (dose: 200.0 mg/kg/injection, schedule: Q01DX009 (ip), vehicle: saline with Tween-80): 100 % of control

SMILES: COc1cc(NC(=O)N(CCCl)N=O)cc(OC)c1OC
- T/C (dose: 0.18 mg/kg/injection, schedule: Q01DX009 (ip), vehicle: alcohol): 107 % of control
- T/C (dose: 0.27 mg/kg/injection, schedule: Q01DX009 (ip), vehicle: alcohol): 109 % of control
- T/C (dose: 0.4 mg/kg/injection, schedule: Q01DX009 (ip), vehicle: alcohol): 100 % of control
- T/C (dose: 0.6 mg/kg/injection, schedule: Q01DX009 (ip), vehicle: alcohol): 107 % of control
- T/C (dose: 1.33 mg/kg/injection, schedule: Q01DX009 (ip), vehicle: saline + alcohol): 173 % of control
- T/C (dose: 2.0 mg/kg/injection, schedule: Q01DX009 (ip), vehicle: saline + alcohol): 170 % of control
- T/C (dose: 7.5 mg/kg/injection, schedule: Q04DX003 (ip), vehicle: saline + alcohol): 154 % of control
- T/C (dose: 12.5 mg/kg/injection, schedule: Q04DX003 (ip), vehicle: other): 215 % of control
- T/C (dose: 25.0 mg/kg/injection, schedule: Q04DX003 (ip), vehicle: other): 280 % of control
- T/C (dose: 50.0 mg/kg/injection, schedule: Q04DX003 (ip), vehicle: other): 300 % of control

SMILES: COC(=O)c1cc2nc(C(C)C)n(Cc3ccccc3)c2cc1C(=O)OC
- T/C [3]: 92 % of control
- T/C [4]: 92 % of control
- T/C [5]: 90 % of control

SMILES: O=S(=O)(O)CCCS(=O)(=O)O
- T/C [6]: 98 % of control
- T/C [7]: 98 % of control
- T/C [8]: 101 % of control

SMILES: COC(=O)C1(C)CCCC2(C)c3cc(OC)ccc3C3(CC12)SCCS3 (stereo not given)
- T/C (dose: 10.0 mg/kg/injection, schedule: Q01DX009 (ip), vehicle: saline with Tween-80): 95 % of control
- T/C (dose: 20.0 mg/kg/injection, schedule: Q01DX009 (ip), vehicle: saline with Tween-80): 99 % of control
- T/C (dose: 40.0 mg/kg/injection, schedule: Q01DX009 (ip), vehicle: saline with Tween-80): 103 % of control

SMILES: Cc1ccc(N(C)c2cc(=O)n(C)c(=O)[nH]2)cc1C
- T/C [9]: 94 % of control
- T/C (dose: 100.0 mg/kg/injection, schedule: Q01DX005 (ip), vehicle: saline with Tween-80): 103 % of control

SMILES: COc1ccccc1Nc1n[nH]c(=S)s1
- T/C [10]: 121 % of control
- T/C [11]: 105 % of control
- T/C [12]: 95 % of control

SMILES: COc1ccc(C(=S)SCCCC(=O)O)cc1
- T/C [10]: 102 % of control
- T/C [11]: 98 % of control
- T/C [12]: 92 % of control

SMILES: COc1cc(C(c2cc3c(cc2OC(C)=O)OCO3)C(C(C)=O)C(C)=O)cc(OC)c1OC (stereo not given)
- T/C [3]: 106 % of control
- T/C [4]: 98 % of control
- T/C [5]: 121 % of control

SMILES: COc1ccc(CCN2C(=O)C(=O)N(C)C2=O)cc1OC
- T/C [10]: 90 % of control
- T/C [11]: 96 % of control
- T/C [12]: 102 % of control

SMILES: CC[N+](CC)=c1ccc2nc3c(cc(NCc4ccccc4)c4ccccc43)oc-2c1
- T/C [13]: 103 % of control
- T/C [14]: 100 % of control
- T/C [9]: 105 % of control and 107 % of control

SMILES: CC(=O)OCC#CCN1CCOCC1
- T/C (dose: 50.0 mg/kg/injection, schedule: Q01DX005 (ip), vehicle: saline): 124 % of control
- T/C (dose: 60.0 mg/kg/injection, schedule: Q01DX005 (ip), vehicle: suspension in saline): 102 % of control
- T/C (dose: 120.0 mg/kg/injection, schedule: Q01DX005 (ip), vehicle: suspension in saline): 100 % of control

SMILES: C=C(C)C12CC(COC(=O)c3ccccc3)C34OC5(OC1C3C1OC1(CO)C(O)C1(O)C(OC(=O)c3ccccc3)C(C)C(C(C)CCCCCCC5O)C14)O2 (stereo not given)
- T/C (dose: 0.8 micrograms/kg/injection, schedule: Q01DX009 (ip), vehicle: Klucel (hydroxypropylcellulose) (HPC)): 104 % of control
- T/C (dose: 1.5 micrograms/kg/injection, schedule: Q01DX009 (ip), vehicle: saline): 99 % of control
- T/C (dose: 1.6 micrograms/kg/injection, schedule: Q01DX009 (ip), vehicle: Klucel (hydroxypropylcellulose) (HPC)): 110 % of control
- T/C (dose: 3.1 micrograms/kg/injection, schedule: Q01DX009 (ip), vehicle: saline): 99 % of control
- T/C (dose: 3.2 micrograms/kg/injection, schedule: Q01DX009 (ip), vehicle: Klucel (hydroxypropylcellulose) (HPC)): 102 % of control
- T/C (dose: 6.2 micrograms/kg/injection, schedule: Q01DX009 (ip), vehicle: saline): 96 % of control
- T/C (dose: 6.3 micrograms/kg/injection, schedule: Q01DX009 (ip), vehicle: Klucel (hydroxypropylcellulose) (HPC)): 98 % of control
- T/C (dose: 12.5 micrograms/kg/injection, schedule: Q01DX009 (ip), vehicle: Klucel (hydroxypropylcellulose) (HPC)): 112 % of control
- T/C (dose: 12.5 micrograms/kg/injection, schedule: Q01DX009 (ip), vehicle: saline with Tween-80): 89 % of control
- T/C (dose: 12.5 micrograms/kg/injection, schedule: Q01DX009 (ip), vehicle: saline): 124 % of control
- T/C (dose: 25.0 micrograms/kg/injection, schedule: Q01DX009 (ip), vehicle: Klucel (hydroxypropylcellulose) (HPC)): 102 % of control
- T/C (dose: 25.0 micrograms/kg/injection, schedule: Q01DX009 (ip), vehicle: saline with Tween-80): 96 % of control
- T/C (dose: 25.0 micrograms/kg/injection, schedule: Q01DX009 (ip), vehicle: saline): 150 % of control
- T/C (dose: 50.0 micrograms/kg/injection, schedule: Q01DX009 (ip), vehicle: Klucel (hydroxypropylcellulose) (HPC)): 101 % of control
- T/C (dose: 50.0 micrograms/kg/injection, schedule: Q01DX009 (ip), vehicle: saline): 157 % of control and 159 % of control
- T/C (dose: 100.0 micrograms/kg/injection, schedule: Q01DX009 (ip), vehicle: Klucel (hydroxypropylcellulose) (HPC)): 104 % of control
- T/C (dose: 200.0 micrograms/kg/injection, schedule: Q01DX009 (ip), vehicle: Klucel (hydroxypropylcellulose) (HPC)): 110 % of control

SMILES: S=c1[nH]c(=S)c2[nH]c(=S)[nH]c2[nH]1
- T/C [13]: 92 % of control
- T/C [14]: 96 % of control
- T/C [9]: 90 % of control and 95 % of control
- T/C (dose: 200.0 mg/kg/injection, schedule: Q01DX005 (ip), vehicle: saline with Tween-80): 89 % of control

SMILES: COC(=O)NCCn1c([N+](=O)[O-])cnc1C
- T/C (dose: 100.0 mg/kg/injection, schedule: Q01DX001 (ip), vehicle: saline with Tween-80): 99 % of control
- T/C (dose: 200.0 mg/kg/injection, schedule: Q01DX001 (ip), vehicle: saline with Tween-80): 98 % of control
- T/C (dose: 400.0 mg/kg/injection, schedule: Q01DX001 (ip), vehicle: saline with Tween-80): 106 % of control

SMILES: C=CC(N)[Si](CC)(CC)CC (stereo not given)
- T/C [3]: 106 % of control
- T/C [4]: 101 % of control

SMILES: COc1ccc2c3c(ccc2c1)C(=O)/C(=C\O)CC3
- T/C (dose: 12.5 mg/kg/injection, schedule: Q01DX005 (ip), vehicle: Klucel (hydroxypropylcellulose) (HPC)): 103 % of control
- T/C [1]: 93 % of control
- T/C [2]: 95 % of control and 97 % of control

SMILES: O=C(C(=O)c1cccc(C(=O)C(=O)c2ccccc2)c1)c1ccccc1
- T/C [3]: 104 % of control
- T/C [4]: 96 % of control
- T/C [5]: 92 % of control
